How the values were obtained:
[1] = target: adenosine A3 receptor (A3R) (Homo sapiens (Human), UniProt P0DMS8); assay: Inhibition of adenosine A3 receptor cAMP signaling pathway (HTRF cAMP, CHO-K1/A3R cells); format: cell-based; settings: Table 2; for IC50: CHO-K1/A3R cells, forskolin 10 μM, 2Cl-IB-MECA 5 nM, cAMP HTRF
Description: Test Example 1. Determination of the inhibition activity of the compounds of the present invention on the adenosine A2a receptor (A2aR) cAMP signaling pathway, the adenosine A2b receptor (A2bR) cAMP signaling pathway, the adenosine A1 receptor (A1R) cAMP signaling pathway and the adenosine A3 receptor (A3R) cAMP signaling pathway.
The inhibition activity of the compounds of the present invention on the adenosine A2a receptor cAMP signaling pathway, the adenosine A2b receptor cAMP signaling pathway, the adenosine A1 receptor cAMP signaling pathway and the adenosine A3 receptor cAMP signaling pathway was determined by the following method. The experimental method is briefly described as follows:
2.3 Adenosine A3 receptor
CHO-K1/A3R cells were cultured in DMEM/F12 medium containing 10% fetal bovine serum and 10 μg/ml puromycin. The cells were digested with the cell separation buffer during the experiment. The cells were resuspended in the balanced salt buffer containing 20 mM HEPES and 0.1% bovine serum albumin and counted, and the cell density was adjusted to 5×10^5 cells/ml. In the 384-well plate, each well was added with 12.5 μl of cell suspension, and 6.25 μl of test compound (4× concentration) formulated with the balanced salt buffer containing 20 mM HEPES, 0.1% bovine serum albumin, 54 μM rolipram and 2.7 U/ml adenosine deaminase, and the plate was incubated at room temperature for 30 minutes. Each well was then added with 6.25 μl of forskolin and 2Cl-IB-MECA (4× concentration) formulated with the balanced salt buffer containing 20 mM HEPES, 0.1% bovine serum albumin, 54 μM rolipram and 2.7 U/ml adenosine deaminase, and the plate was incubated at room temperature for 30 minutes. The final concentrations of the compounds were: 100000, 10000, 1000, 100, 10, 1, 0.1 and 0 nM. The final concentration of forskolin was 10 μM. The final concentration of 2Cl-IB-MECA was 5 nM. Intracellular cAMP concentration was detected with the cAMP dynamic 2 kit. cAMP-d2 and Anti-cAMP-Eu-Cryptate were diluted respectively with the cAMP lysis buffer at a ratio of 1:4. Each well was added with 12.5 μl of diluted cAMP-d2, followed by addition of 12.5 μl of diluted Anti-cAMP-Eu-Cryptate, and the plate was incubated at room temperature in the dark for 1 hour. The HTRF signal values were read by the PHERAstar multi-function microplate reader.

[2] = Brain permeability in mice (plasma/brain concentration plus equilibrium dialysis); format: in vivo; settings: mouse, not told, po; female C57 mice, 20 mg/kg intragastric, 0.5 h after administration; read-out: Blood-brain permeability index (Kp-unbound)
Procedure: The brain permeability of the compounds of the present invention in mice was determined by the following experimental method:
Four female C57 mice were maintained on a 12 hours light/12 hours dark cycle, in a constant temperature of 24±3° C. and a humidity of 50-60%, and had free access to food and water. The compounds were administered intragastrically to the mice after fasting overnight. The administration dosage was 20 mg/kg. The drug administration group was sacrificed after blood collection at 0.5 h after drug administration (collected blood volume: 0.5 ml). The blood sample was stored in heparinized tubes, and centrifuged for 10 minutes at 3500 rpm to separate the plasma, which was marked as plasma 1 and stored at −80° C. […]
The equilibrium dialysis tube of RED Device Inserts was inserted into a 96-well plate. […] The chromatographic peak area ratios of the total drug (plasma chamber) and the free drug (buffer chamber) to the internal standard were determined directly by the LC/MS/MS method established above respectively, and the free percent (fuplasma%) was calculated. […]
5.1 The drug concentrations in plasma 1 and brain tissue 1 of mice 0.5 h after drug administration were determined by the established LC/MS/MS method respectively, which were the total concentration (Ctotal, p and Ctotal, b); […]

Chain of adenosine A3 receptor (A3R) (P0DMS8 whole entry): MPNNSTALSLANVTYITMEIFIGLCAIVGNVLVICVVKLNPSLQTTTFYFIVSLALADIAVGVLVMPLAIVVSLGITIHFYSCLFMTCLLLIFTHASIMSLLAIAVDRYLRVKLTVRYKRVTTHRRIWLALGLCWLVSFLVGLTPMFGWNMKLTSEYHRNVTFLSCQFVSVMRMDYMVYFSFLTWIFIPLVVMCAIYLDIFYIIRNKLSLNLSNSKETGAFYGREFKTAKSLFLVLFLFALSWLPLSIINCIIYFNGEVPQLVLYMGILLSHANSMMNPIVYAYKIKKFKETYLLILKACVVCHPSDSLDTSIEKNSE

Structure (SMILES): Cc1cc(-c2c(-c3ccc(F)cc3F)nc(N)n3cnnc23)cc(C(F)(F)F)n1 [Example 18, 7-(2,4-Difluorophenyl)-8-(2-methyl-6-(trifluoromethyl)pyridin-4-yl)-[1,2,4]triazolo[4,3-c]pyrimidin-5-amine]
- IC50 ratio (A3R/A2aR) [1]: >2.5 × 10^3
- IC50 [1]: > 10000 nM
- Kp at 0.5 h [2]: 0.01

Structure (SMILES): Cc1cc(-c2c(-c3ccc(F)cc3F)nc(N)n3cnnc23)cc(C(F)F)n1 [Example 20, 8-(2-(Difluoromethyl)-6-methylpyridin-4-yl)-7-(2,4-difluorophenyl)-[1,2,4]triazolo[4,3-c]pyrimidin-5-amine]
- IC50 ratio (A3R/A2aR) [1]: >4.3 × 10^3
- IC50 [1]: > 10000 nM
- Kp at 0.5 h [2]: 0.015

Reference: patent US11312705B2, “Heteroaryl[4,3-C]pyrimidine-5-amine derivative, preparation method therefor, and medical uses thereof” (Jiangsu Hengrui Medicine Co., Ltd., priority 2017, dated 2022)
